The text below walks through data of US12478569B2, “Compositions methods and device for enhancing dental care based on dead sea salt and cannabinoid or extract of cannabis plant” (CANNIBITE BVBA, priority 2019, dated 2025).

Common to all, as to assay type: cell-based
The test system of assay [1] is gingival plaque. Put plainly: Cannabinoid effects on gingival plaque in vitro in subjects with gum disease (FIG. 2). On the procedure: FIG. 2A-2F illustrate the effects of selected cannabinoids on gingival plaque in various individuals. Samples of gingival plaque were obtained from individuals A-F with various degrees of gum disease, samples were plated in the presence of various cannabinoids, cannabinoid formulations or essential oils, and cultured as above (samples A-F correspond to plates 1-6).
The effects of cannabinoids on gum disease was further investigated in a series of subjects with various degrees of gingivitis (an earliest and mildest form) or periodontitis (full-fledged gum disease), the severity of gum disease was further evaluated using Dutch Periodontal Screening Index (DPSI).
Samples of gingival plaque were obtained from 6 subjects (A-F) with various degrees of gum disease, samples were plated and cultured for 2 days at 37° C. in the presence of various cannabinoids and cannabinoid combinations.

For assay [2], the system named is dental biofilm/plaque. The assay can be described thus: Preliminary case study: dental biofilm/plaque sample plated and cultured in the presence of cannabinoids (FIG. 1). Conditions: dental plaque sample cultured for 2 days at 37° C. On the procedure: FIG. 1 illustrates a case study on the antimicrobial effect of cannabinoids on dental plaque. A sample of dental plaque was plated in the presence CBD or CBG and a reference antimicrobial agent (chlorhexidine gluconate, CHG), and cultured for 2 days at 37° C. The resulting bacterial colonies are shown.
A sample of dental biofilm/plaque was obtained, plated and cultured for 2 days at 37° C. in the presence of two types of cannabinoids, CBD and CBG, and Chlorhexidine (CHG) as a reference antimicrobial agent.

For assay [3], the system named is dental flora (plaque). The assay can be described thus: Cannabinoid sensitivity tests in vitro on dental flora (plaque) of 10 subjects. Conditions: for suppression of bacterial flora (score): dental flora in vitro. The arrangement: key to suppression of bacterial flora (score): Increasing scores (+) indicate an increased suppression of bacterial flora. On the procedure: Subsequently, in a more extended in vitro trial the effectiveness of cannabinoids was determined in 10 subjects (A-J). Samples of dental flora (plaque) were collected by swabs, scrapes, and were tested on the following panel of cannabinoids and cannabinoid combinations: • 1=CBD • 2=CBD+CBN • 3=CBD+CBN+CBG • 4=CBD+CBN+CBG+CBC • 5=CBD+CBN+CBG+CBC+CBGA • 6=CHG reference antimicrobial agent • 7=control with no antiseptic or antimicrobial agent.
Bacterial sensitivity was determined by conventional methods, e.g., growth on selective media, microscopic fluorescence examination.

Where [4] appears, read: subject A, moderate gingivitis, DPSI score 1, 2 days at 37° C.
Setting [5] is: subject C, periodontitis, DPSI score −3, 2 days at 37° C.
Where [6] appears, read: subject D, moderate gingivitis, DPSI score 2, 2 days at 37° C.
Where [7] appears, read: subject E, advanced periodontitis, DPSI score +3, 2 days at 37° C.
Setting [8] is: subject F, moderate gingivitis, DPSI score 1, 2 days at 37° C.

For the molecule `CCCCCc1cc(O)c2c(c1)OC(C)(CCC=C(C)C)C=C2` (stereo not drawn) [CBC, Cannabichromene], the Relative effectiveness result in assay [1] (setting [4]) is “CBG > CBGA > CBN ≈ CBC”; in assay [1] (setting [5]) it was “CBC > CBG > CBD > CBN”; in assay [1] (setting [6]) it was “CBGA > CBC > CBG ≈ CBN”; in assay [1] (setting [7]), “CBG ≈ CBGA > CBC > CBD”; in assay [1] (setting [8]), “CBC > CBG ≈ CBGA ≈ CBD”.
`C=C(C)[C@@H]1CCC(C)=C[C@H]1c1c(O)cc(CCCCC)cc1O` [CBD, Cannabidiol]: the “bacterial growth in the saturated zone” value in assay [2] is reported as “no growth”. The “effectiveness on suppression of dental flora in vitro” value in assay [3] (in many individuals) is listed as “sufficiently effective”. Moreover, in assay [3] (patient B), the “most effective panel of cannabinoids” value is recorded as “most effective”. Further, the Relative effectiveness result in assay [1] (subject B, no gingivitis and no pathology, DPSI score 0, 2 days at 37° C.) is recorded as “POM ≈ POM form. ≈ CBD > CBD form”; in assay [1] (setting [5]), “CBC > CBG > CBD > CBN”; in assay [1] (setting [7]) it was “CBG ≈ CBGA > CBC > CBD”; in assay [1] (setting [8]) it was “CBC > CBG ≈ CBGA ≈ CBD”.
For `CCCCCc1cc(O)c(C/C=C(\C)CCC=C(C)C)c(O)c1` [CBG, Cannabigerol], the “bacterial growth in the saturated zone” value in assay [2] is listed as “lesser bacterial growth”. The Relative effectiveness result was “CBG > CBGA > CBN ≈ CBC” in assay [1] (setting [4]); “CBC > CBG > CBD > CBN” in assay [1] (setting [5]); “CBGA > CBC > CBG ≈ CBN” in assay [1] (setting [6]); “CBG ≈ CBGA > CBC > CBD” in assay [1] (setting [7]); “CBC > CBG ≈ CBGA ≈ CBD” in assay [1] (setting [8]).
Regarding `CCCCCc1cc(O)c(C/C=C(\C)CCC=C(C)C)c(O)c1C(=O)O` [CBGA, Cannabigerolic acid], the Relative effectiveness entry in assay [1] (setting [4]) was “CBG > CBGA > CBN ≈ CBC”; in assay [1] (setting [6]), “CBGA > CBC > CBG ≈ CBN”; in assay [1] (setting [7]), “CBG ≈ CBGA > CBC > CBD”; in assay [1] (setting [8]), “CBC > CBG ≈ CBGA ≈ CBD”.
For the molecule `CCCCCc1cc(O)c2c(c1)OC(C)(C)c1ccc(C)cc1-2` [CBN, Cannabinol], the Relative effectiveness result in assay [1] (setting [4]) is “CBG > CBGA > CBN ≈ CBC”; in assay [1] (setting [5]), “CBC > CBG > CBD > CBN”; in assay [1] (setting [6]) it was “CBGA > CBC > CBG ≈ CBN”.
`N=C(NCCCCCCNC(=N)NC(=N)Nc1ccc(Cl)cc1)NC(=N)Nc1ccc(Cl)cc1.O=C(O)[C@H](O)[C@@H](O)[C@H](O)[C@H](O)CO.O=C(O)[C@H](O)[C@@H](O)[C@H](O)[C@H](O)CO` [CHG, chlorhexidine gluconate]: the “bacterial growth in the saturated zone” value in assay [2] is given as “lesser bacterial growth”. The “suppression of bacterial flora (score)” value is reported as “+ +” in assay [3] (subject A); “+ +” in assay [3] (subject B); “+” in assay [3] (subject C); “+ +” in assay [3] (subject D); “− −” in assay [3] (subject E); “− −” in assay [3] (subject F). Also, the “suppression of bacterial flora (score)” value in assay [3] (subject G) was “+ + +”; in assay [3] (subject H), “+”; in assay [3] (subject I), “+ +”; in assay [3] (subject J), “− −”.
